Data taken from US20030157084A1, “Methods for preparing purified prostaglandin E synthase” (priority 2001, published 2003).
Like-named read-outs stand apart in the source and are kept apart here.

Tests used:
purified His6-hPGES [1] = target: T1, purified His6-hPGES (Homo sapiens, UniProt O14684); assay: PGES activity assay: glutathione dependent conversion of PGH2 to PGE2 by purified His6-hPGES; type: biochemical; set-up: made in house; host or cells: E. coli BL21(DE3) with pLysSL; conditions: sulfhydryl compound in place of GSH
T1 sequence (O14684 1-152): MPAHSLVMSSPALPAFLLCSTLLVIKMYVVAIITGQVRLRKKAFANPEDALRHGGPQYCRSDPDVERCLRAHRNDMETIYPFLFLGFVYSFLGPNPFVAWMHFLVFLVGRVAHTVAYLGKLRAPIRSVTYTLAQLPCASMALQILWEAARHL

purified His6-hPGES [2] = target: T1, purified His6-hPGES; assay: Reduction of 15-hydroperoxy-PGE2 (peroxidase activity) by purified his6-hPGES; type: biochemical; set-up: made in house; host or cells: E. coli BL21(DE3) with pLysSL; conditions: 37 ° C., 0.1 mg/ml enzyme, 0.16 mM 15 hydroperoxy-PGE2
Procedure: This is presented in a typical chromatogram (FIG. 12B) as compared to the buffer control (FIG. 12C) after 30 seconds of incubation.

purified His6-hPGES [3] = target: T1, purified His6-hPGES; assay: PGES activity assay: glutathione dependent conversion of PGH2 to PGE2 by purified His6-hPGES; type: biochemical; set-up: made in house; host or cells: E. coli BL21(DE3) with pLysSL; conditions: for Specific activity: at Vmax
Procedure: PGE synthase activity of the purified polypeptide, i.e., the ability to catalyze the conversion of a substrate of PGES into a 9-keto, 11-alpha-hydroxy form, e.g., PGH2 into PGE2 can be determined as follows. […] The polypeptide suspected of having PGES activity is incubated in a buffer, e.g., a sodium phosphate buffer in the presence of about 1 to 5 mM, preferably, 2.5 mM glutathione (GSH). The reaction is started by the addition of PGH2 at about 5 to 20 μM, and preferably 10 uM, and the reaction mixture is then incubated either at 37° C., at room temperature, or preferably, at 0° C., for about one to ten minutes, and preferably, for about one minute. The reaction can be terminated by the addition of a solution reducing the pH to about 3 or 3.2. This can be achieved by the addition of acetonitrile/HCl (as described in Jakobsson et al. (1999) PNAS 96:7220) or by the addition of FeCl2, citric acid, and/or 11-beta PGE2, as described in the Examples. The formation of PGF2 alpha, PGE2 and PGD2 can be determined by reverse-phase high pressure liquid chromatograph (HPLC) and UV detection at 195 nm. For subjecting the proteins to HPLC, the reaction mixtures can be subjected to solid phase extraction, e.g., using C18 Chomabond columns; the samples eluted with acetone, dried and dissolved in acetonitrile. The samples are then ready for HPLC. More details of these methods are provided in the Examples, as well as in Jakobssen et al., supra, and in published PCT application No. WO 00/28022 by Jakobsson et al.
(§1) PGES activity was assayed in 50 mM sodium phosphate buffer, pH 7.4, in the presence of 2.5 mM reduced glutathione (GSH; obtained from Sigma Chemical Co. (St. Louis, Mo.) and either zero; 0.2; 0.4 or 0.6 mg/ml of purified hPGES. The reaction was started by the addition of 10 μM PGH2, and the samples were incubated for 1 minute at 0° C. until terminated by 20 mM FeCl2, 40 mM citric acid and 2.1 μM 11-β. PGE2, lowering the pH to 3. PGH2 was prepared by brief incubation of arachidonic acid with suspensions of the microsomal fraction of homogenate of the sheep vesicular gland essentially as described in Hamberg et al. (1974) PNAS 71:345 or Hecker et al. (1987) Biochem. Pharmacol. 36:851. L-tryptophan (5 mM) was used as electron donor. Purification was accomplished by straight-phase HPLC using a solvent system of 2.5% 2-propanol-hexane containing 0.002% acetic acid. Solid phase extraction using C18 Chromabond columns was performed immediately. The samples were eluted with acetone, dried and dissolved in acetonitrile (⅓ by vol. in H2O) and the formation of PGE2 was analyzed by reverse-phase HPLC on a C18 (3.9×150 mm, 4 μM particle size) column and UV detection at 195 nm.
(§2) The remaining protein was divided in two parts, one was stored at 4° C. for 5 days, and one was frozen and stored at −20° C. for the same time. The PGES activity in the three samples was compared with that in a membrane fraction without solubilization. PGES activity was determined, as described above, for various amounts of protein. The samples were incubated for 1 min on ice or at 37° C. before stopping the reaction. The activity of the purified proteins was compared with the activity in BL21(DE3) membrane fraction without solubilization.
(§3) All points were made in triplicate. The Michaelis-Menten constants KM and Vmax (maximum velocity) were derived by hyperbolic regression with the computer program GraphPad Prism software 3.0 or 3.02 (GraphPad Software, Inc., San Diego, Calif.).

purified His6-hPGES [4] = target: T1, purified His6-hPGES; assay: Glutathione transferase (GST) activity of purified His6-hPGES with CDNB; type: biochemical; set-up: made in house; host or cells: E. coli BL21(DE3) with pLysSL; conditions: pre-incubation with 5 mM N-ethylmaleimid in the absence of GSH for 1 minute
Procedure: Glutathione transferase (GST) activity (glutathione conjugation) was assayed with the classical model substrate for GSTs, p-chloro-2,4-dinitrobenzene (CDNB). […] Formation of product was detected at 340 nm (molar absorption coefficient for the product, GS-DNB, is 9.6 mM^−1 cm^−1).

purified His6-hPGES [5] = target: T1, purified His6-hPGES; assay: Isomerization of PGG2 into 15-hydroperoxy-PGE2 by purified His6-hPGES; type: biochemical; set-up: made in house; host or cells: E. coli BL21(DE3) with pLysSL
Procedure: PGG2 was prepared similarly to PGE2 (described above), omitting the L-tryptophan. The reaction was terminated by lowering the pH to 3 by adding 6 μl HCl (1M). Then, 45 μl acetonitrile was added and centrifugation was performed at 14,000 g, for 1 minute to remove the protein. […] In order to determine the formation of PGE2 and 15-Hydroperoxy PGE2, an aliquot (100 μl) was analyzed by RP-HPLC, combined with UV detection at 195 nm. The products were quantified based on the peak areas from known amounts of injected prostaglandins.

A549 cells = assay: Induction of PGE synthase and cyclooxygenase-2 in A549 cells; type: cell-based; conditions: IL-1β 1 ng/ml
Procedure: Microsomal fractions of A549 cells cultured with or without IL-1 β 1 ng/ml) for 0, 12, 24, 36 or 72 hours were subjected to SDS-PAGE and Western blot analysis. As positive control, the membrane fraction from bacteria expressing human PGE synthase was included. In all lanes of the gel, 10 μg of total protein was analyzed, except for the human PGE synthase where 2 μg was loaded. The Western blot was then incubated with antipeptide antiserum against PGE synthase. The blot was then stripped and incubated with antiserum against COX-2.
In order to study the possible correlation between the result from the Western blot and PGE synthase activity, the corresponding microsomes were incubated in the presence of PGH2 and reduced glutathione as described above. Briefly, microsomes (0.03 mg/ml) were incubated with PGH2 (11 μM) for 30 seconds at 0° C., followed by extraction and analysis by RP-HPLC. […] In addition, no corresponding activity was detected in the cytosolic fractions.

purified His6-hPGES [6] = target: T1, purified His6-hPGES; conditions: 37 ° C., 0.05 mg/ml enzyme, 1 mM GSH, 0.5 mM cumene hydroperoxide
[7] = Specific activity and kinetic properties of purified His6-hPGES for conversion of PGH2 to PGE2; type: biochemical; conditions: for Specific activity of the purified His6-hPGES: glutathione dependent conversion of PGH2 to PGE2
Procedure: as §1, §2, §3

[8] = type: physicochemical
Procedure: Membrane fractions were solubilized in 50 mM sodium phosphate buffer, pH 8.0, 150 mM NaCl, 4% Triton X-100, 10% glycerol and 1 mM GSH and stored at 4° C. Samples were assayed for PGES activity as described above after 0, 3, 6, 24 and 240 h (10 days) at 4° C.
as §2

[9] = 37° C., steady state, KM values apparent, read-out: KM

For `O[C@H](CS)[C@H](O)CS` (racemic) [dithiothreitol], the “PGES activity when GSH was substituted by other sulfhydryl compounds” value (shortened to “PGES activity when GSH was substituted”) (purified His6-hPGES [1]) was “no PGES-activity could be detected”.

In the case of `OCCS` [2-mercaptoethanol], the “PGES activity when GSH was substituted” value (purified His6-hPGES [1]) is reported as “no PGES-activity could be detected”.

For `CCCCC[C@@H](/C=C/[C@H]1[C@H](O)CC(=O)[C@@H]1C/C=C\CCCC(=O)O)OO` [15-hydroperoxy-PGE2, 15-Hydroperoxy PGE2], the “Specific activity (reduction of 15-hydroperoxy-PGE2)” value (purified His6-hPGES [2]) was 0.043 ± 0.019 µmol/min/mg and the “Specific activity (reduction of 15-hydroperoxy-PGE2)” value (purified His6-hPGES [2]; listed as 15-HP PGE2) was “no peroxidase activity towards this compound was detected”.

Work on `N[C@@H](CCC(=O)N[C@@H](CS)C(=O)NCC(=O)O)C(=O)O` [GSH, reduced glutathione] yielded a kcat (purified His6-hPGES [3]; 37° C., steady state) of 21 ± 1 s⁻¹ and a Km (purified His6-hPGES [3]; [9]) of 710 ± 200 µM.

For `CC(=O)N[C@@H](CS)C(=O)O` [N-acetylcysteine], the “PGES activity when GSH was substituted” value (purified His6-hPGES [1]) was “no PGES-activity could be detected”.

In the case of `CCN1C(=O)C=CC1=O` [N-ethylmaleimide], the “Reduction of PGES activity” value (purified His6-hPGES [3]; pre-incubation with 5 mM N-ethylmaleimide in the absence of GSH for 1 minute) is reported as roughly 100% and the “Reduction of GST enzyme activity” value (purified His6-hPGES [4]) is reported as 50%.

For `CCCCC[C@@H](/C=C/[C@@H]1[C@@H](C/C=C\CCCC(=O)O)[C@@H]2C[C@H]1OO2)OO` [PGG2], the kcat (purified His6-hPGES [5]; 37° C., steady state, PGG2 as substrate) was 75 ± 4 s⁻¹, the Km (purified His6-hPGES [5]; 37° C., steady state, PGG2 as substrate, apparent) was 160 ± 30 µM and the Specific activity (purified His6-hPGES [5]; 37 ° C., substrate PGG2, highest measured specific activity) was 250 ± 15 µmol/min/mg.

For `CCCCC[C@H](O)/C=C/[C@@H]1[C@@H](C/C=C\CCCC(=O)O)[C@@H]2C[C@H]1OO2` [PGH2, Prostaglandin endoperoxide H2], the Vmax (purified His6-hPGES [3]; 0° C., 1 μg/ml purified PGES, 2.5 mM GSH, varying PGH2) was 0.25 ± 0.013 µM/s, the Km (purified His6-hPGES [3]; 0° C., 1 μg/ml purified PGES, 2.5 mM GSH, varying PGH2, read-out: Km for PGH2) was 50 ± 8.9 µM and the Vmax (purified His6-hPGES [3]; 37° C., 1 μg/ml purified PGES, 2.5 mM GSH, varying PGH2) was 1.39 ± 0.16 µM/s. It also gave a Km (purified His6-hPGES [3]; 37° C., 1 μg/ml purified PGES, 2.5 mM GSH, varying PGH2, read-out: Km for PGH2) of 163 ± 42 µM, a kcat (purified His6-hPGES [3]; 37° C., steady state) of 50 ± 6 s⁻¹ and a Km (purified His6-hPGES [3]; [9]) of 160 µM. It also gave a Specific activity (purified His6-hPGES [3]; substrate PGH2, 0 ° C.) of 15 µmol/min/mg and a Specific activity (purified His6-hPGES [3]; substrate PGH2, 37 ° C.) of 170 ± 20 µmol/min/mg.

With “IL-1β: proinflammatory cytokine interleukin-1β, added to A549 cells at 1 ng/ml” the “COX-2 and PGE synthase protein expression (Western blot)” value (A549 cells; microsomal fractions, 0-72 hours) was “tandem upregulation of COX-2 and PGE synthase proteins” and the “PGE synthase activity in microsomes” value (A549 cells; up to 72 hours, microsomes 0.03 mg/ml, PGH2 11 μM, 30 seconds at 0° C.) was “increase over time”.

With cumene hydroperoxide the “Specific activity (GSH-dependent peroxidase)” value (purified His6-hPGES [6]) was 0.17 ± 0.02 µmol/min/mg and the “Specific activity (GSH-dependent peroxidase)” value (purified His6-hPGES [6]; listed as cumene hydroperoxide) was 0.17 µmol/min/mg.

B1: His6-hPGES: full length human PGES fused at its N-terminus to six histidine residues (SEQ ID NO: 4), expressed in E. coli (protein)
chain: MHHHHHHMPAHSLVMSSPALPAFLLCSTLLVIKMYVVAIITGQVRLRKKAFANPEDALRHGGPQYCRSDPDVERCLRAHRNDMETIYPFLFLGFVYSFLGPNPFVAWMHFLVFLVGRVAHTVAYLGKLRAPIRSVTYTLAQLPCASMALQILWEAARHL
With B1 the “Specific activity of the purified His6-hPGES” value ([7]; 0° C.) was 15 µmol/min/mg, the “Specific activity of the purified His6-hPGES” value ([7]; 37° C.) was 167 µmol/min/mg and the Km ([7]; Human, recombinant) was 163 µM. The “Spec. Act.” value ([7]; Human, recombinant) was 167 µmol/min/mg, the kcat ([7]; Human, recombinant) was 50 s⁻¹ and the Original activity remaining ([8]; 816 h) was “about 50%”. For the same molecule, the “PGES activity in BL21 (DE3) membranes” value ([8]; in the absence of glycerol and GSH) was “rapidly declines within a period of 24 h”, the “PGES activity after heating” value ([8]; purified enzyme heated at 100° C. for 10 minutes) was “no PGES-activity could be detected” and the “Activity compared to the freshly prepared enzyme” value ([8]; purified enzyme, five days of storage at 4° C.) was “unchanged”. For the same molecule, the “Loss of activity on storage” value ([8]; purified enzyme, up to at least two months at −20° C.) was “does not seem to result in any loss of activity”.
